The values that follow are results of earlier work, collected in patent US12370168B2 (scPharmaceuticals Inc., priority 2013, dated 2025).

The conditions of the data set: as described in the '361 patent; cited from earlier work.

SMILES strings stand for the structures.

In the case of `NC(CO)(CO)CO.NS(=O)(=O)c1cc(C(=O)O)c(NCc2ccco2)cc1Cl` [tris(hydroxymethyl)aminomethane salt of furosemide], the pH is listed as 6-6.5.
